These are literature values, as cited in publication PMC9008720 (Biomedical chromatography : BMC, 2022).

Molecules are shown by their SMILES.

In the data set the test system is GBM tumor. Particulars: ref Zalcman et al., 2018.

With `CNC(=O)c1ccc(N2C(=S)N(c3ccc(C#N)c(C(F)(F)F)c3)C(=O)C2(C)C)cc1F` [enzalutamide], the “GBM tumor growth in nude mice” value is “reduced the GBM tumor growth”.
